Entries after “also recorded” stand apart in the source; their conditions may differ.
Assays:
[1] = tested on: PC3 (prostate) carcinoma cell line; experiment: antiproliferative growth assay, PC3; assay type: cell-based, human; conditions: PC3 prostate carcinoma cells
Description: It is noteworthy that most of these compounds belong to the thiazolidine library.

MCF7 cells [2] = experiment: apoptosis assay, Annexin V/PI; assay type: cell-based, human; conditions: 24 h
Description: It has been detected that the early and late apoptosis produced by the examined compound 10 certainly indicated its capability to induce significant levels of apoptosis with necrosis percent 3.14.

[3] = tested on: MCF7 (breast) carcinoma cell line; experiment: antiproliferative growth assay, MCF7; assay type: cell-based, human
[4] = tested on: HCT-116 (colon) carcinoma cell line; experiment: antiproliferative growth assay, HCT-116; assay type: cell-based, human; conditions: for potency against colon cancer relative to the standard reference (5-fluorouracil): HCT-116, compared with 5-fluorouracil; for IC50: HCT116 colon carcinoma cells
MCF7 cells [5] = experiment: cell cycle analysis by flow cytometry; assay type: cell-based, human; conditions: 24 hours
Description: Typical neoplastic cells evade apoptosis since accumulation of mutations block apoptosis pathways. It was confirmed that the induction of apoptosis upon effective cancer treatment. It is an important regulatory mechanism in cell growth, maturation and death and is associated with a variety of human diseases, including tumors. Chemotherapy agents may lead to an autophagic response, which is one possible method of inducing apoptosis. There is a unique association between autophagy and apoptosis. While chemotherapeutic drugs induce autophagy, cell cycle arrest and cell senescence, it is imperative the induction of apoptosis and permanent removal of neoplastic cells for effective cancer treatment. Studies on the effect of compound 10 on cell cycle development and induction of apoptosis in cancer MCF7 cells was carried out. […] The cells were analyzed by flow cytometry technique.

EGFR = EGFR (Homo sapiens, UniProt P00533); experiment: EGFR inhibition assay (Alpha Screen system); assay type: biochemical; conditions: Gefitinib as standard
[6] = Homo sapiens, MCF7, MCF7 breast carcinoma cells

Row | IC50 ([1]; Homo sapiens) | IC50 [3, 6] | IC50 ([4]; Homo sapiens, HCT-116) | Compound | also measured
1 | 67.4 µM | 17.4 µM | 12.2 µM | CN(C)/C=C1\S/C(=N\c2ccc(C(=O)O)cc2)N(C(=O)c2ccccc2)C1=O [Compound 10, 4-((3-benzoyl-5-((dimethylamino)methylene)-4-oxothiazolidin-2-ylidene)amino) benzoic acid] | Apoptosis Early (MCF7 cells [2]): 6.41%; Apoptosis Late (MCF7 cells [2]): 16.6%; Necrosis (MCF7 cells [2]): 3.14%; potency against colon cancer relative to the standard reference (5-fluorouracil) [4]: higher potency against colon cancer relative to the standard reference; Comment (cell cycle result) (MCF7 cells [5]): cell cycle arrest at G1/S phase; also recorded: PreGlapoptosis&Cell; % G0-G1 (MCF7 cells [5]; at IC50 concentration 12.17 μM): 38.71%; % G2/M (MCF7 cells [5]; at IC50 concentration 12.17 μM): 28.85%; % Pre-G1 (MCF7 cells [5]; at IC50 concentration 12.17 μM): 26.15%; % S (MCF7 cells [5]; at IC50 concentration 12.17 μM): 32.44%
2 | > 100 µM | > 100 µM | > 100 µM | O=C(O)c1ccc(/N=C2\SCC(=O)N2C(=O)c2ccccc2)cc1 [Compound 4, 4-((3-benzoyl-4-oxothiazolidin-2-ylidene)amino)benzoic acid] | –
3 | > 100 µM | > 100 µM | > 100 µM | O=C(O)c1ccc(/N=C2\S/C(=C/c3ccccc3)C(=O)N2C(=O)c2ccccc2)cc1 [Compound 6a, 4-((3-benzoyl-5-(benzylidene)-4-oxothiazolidin-2-ylidene)amino)benzoic acid] | –
4 | > 100 µM | > 100 µM | > 100 µM | COc1cc(/C=C2/S/C(=N\c3ccc(C(=O)O)cc3)N(C(=O)c3ccccc3)C2=O)cc(OC)c1 [Compound 6e, 4-((3-benzoyl-5-(3,5-dimethoxybenzylidene)-4-oxothiazolidin-2-ylidene)amino) benzoic acid] | –
5 | > 100 µM | > 100 µM | > 100 µM | CN(C)c1ccc(/C=C2/S/C(=N\c3ccc(C(=O)O)cc3)N(C(=O)c3ccccc3)C2=O)cc1 [Compound 6i, 4-((3-benzoyl-5-(4-(dimethylamino)benzylidene)-4-oxothiazolidin-2-ylidene)amino) benzoic acid] | –
6 | > 100 µM | > 100 µM | > 100 µM | O=C(O)c1ccc(/N=C2\S/C(=C/c3ccc(O)cc3)C(=O)N2C(=O)c2ccccc2)cc1 [Compound 6b, 4-((3-benzoyl-5-(4-hydroxybenzylidene)-4-oxothiazolidin-2-ylidene)amino)benzoic acid] | –
7 | > 100 µM | > 100 µM | > 100 µM | O=C(O)c1ccc(/N=C2\S/C(=C/c3ccc4ccccc4c3)C(=O)N2C(=O)c2ccccc2)cc1 [Compound 6g, 4-((3-benzoyl-5-(naphthalen-2-ylmethylene)-4-oxothiazolidin-2-ylidene)amino) benzoic acid] | –
8 | 98.5 µM | 11.7 µM | 7.17 µM | O=C(O)c1ccc(/N=C2\S/C(=C/Nc3nc[nH]n3)C(=O)N2C(=O)c2ccccc2)cc1 [Compound 11] | Apoptosis Early (MCF7 cells [2]): 6.41%; Apoptosis Late (MCF7 cells [2]): 16.6%; Apoptosis Total (MCF7 cells [2]): 26.15%; Necrosis (MCF7 cells [2]): 3.14%; potency against colon cancer relative to the standard reference (5-fluorouracil) [4]: higher potency against colon cancer relative to the standard reference
9 | > 100 µM | > 100 µM | > 100 µM | O=C(O)c1ccc(/N=C2\S/C(=C/c3ccc(O)cc3O)C(=O)N2C(=O)c2ccccc2)cc1 [Compound 6c, 4-((3-benzoyl-5-(2,4-dihydroxybenzylidene)-4-oxothiazolidin-2-ylidene)amino) benzoic acid] | –
10 | > 100 µM | > 100 µM | > 100 µM | O=C(O)c1ccc(/N=C2\S/C(=C/c3cc(/N=N/c4ccccc4)ccc3O)C(=O)N2C(=O)c2ccccc2)cc1 [Compound 9a, 4-((3-benzoyl-5-(2-hydroxy-5-((E)-phenyldiazenyl)benzylidene)-4-oxothiazolidin-2-ylidene)amino) benzoic acid] | –
11 | > 100 µM | > 100 µM | > 100 µM | COc1ccc(/N=N/c2ccc(O)c(/C=C3/S/C(=N\c4ccc(C(=O)O)cc4)N(C(=O)c4ccccc4)C3=O)c2)cc1 [Compound 9b, 4-((3-benzoyl-5-(2-hydroxy-5-((4-methoxyphenyl)diazenyl)benzylidene)-4-oxothiazolidin-2-ylidene)amino)benzoic acid] | –
12 | – | – | – | 4-((3-benzoyl-5-((dimethylamino)methylene)-4-oxothiazolidin-2-ylidene)amino) benzoic acid [Compound 10] | IC50 (EGFR): 0.0674 µM
13 | – | – | – | 4-((3-benzoyl-5-(5-((4-chlorophenyl)diazenyl)-2-hydroxybenzylidene)-4-oxothiazolidin-2-ylidene)amino)benzoic acid [Compound 9c] | IC50 (EGFR): 0.168 ± 0.0036 µM; IC50 [1]: > 100 µM; IC50 ([3]; MCF7 breast carcinoma cells): 38 µM; IC50 [4]: 19.6 µM; potency against colon cancer relative to the standard reference (5-fluorouracil) [4]: higher potency against colon cancer relative to the standard reference
14 | > 100 µM | – | 12.4 µM | COc1ccc(/C=C2/S/C(=N\c3ccc(C(=O)O)cc3)N(C(=O)c3ccccc3)C2=O)cc1 [Compound 6d, 4((3-benzoyl-5-(4-methoxybenzylidene)-4-oxothiazolidin-2-ylidene)amino) benzoic acid] | IC50 (EGFR): 0.134 ± 0.0029 µM; IC50 ([3]; MCF7 breast carcinoma cells): 34.4 µM; potency against colon cancer relative to the standard reference (5-fluorouracil) [4]: higher potency against colon cancer relative to the standard reference
15 | > 100 µM | > 100 µM | > 100 µM | O=C(O)c1ccc(/N=C2\S/C(=C/c3c[nH]c4ccccc34)C(=O)N2C(=O)c2ccccc2)cc1 [Compound 6h, 4-((5-((1H-indol-3-yl)methylene)-3-benzoyl-4-oxothiazolidin-2-ylidene)amino) benzoic acid] | –
16 | – | – | – | 4-(5-(((1H-1,2,4-triazol-3-yl)amino) methylene)-3-benzoyl-4-oxothiazolidin-2-ylidene)amino)benzoic acid [Compound 11] | IC50 (EGFR): 0.0739 ± 0.0016 µM
